Laboratory results reported in patent US4213998A, “Inhibition of lipogenesis” (Shell Oil Company, priority 1979, dated 1980).

System: swine adipose tissue
Assay: Inhibition of lipogenesis (incorporation of 14C-glucose into lipid) in swine adipose tissue slices
Assay type: cell-based
Settings: Sus scrofa, 100 micrograms per milliliter, 37° C., 2 hours, glucose-U-14C, insulin, 5% DMSO, triplicate, read-out: Percent Inhibition of lipogenesis compared to control
Text: The manner in which they cause this effect is not known with certainty; it is believed that they interfere with the synthesis of fatty acids in the tissues. Their effectiveness for this purpose has been ascertained by immersing sales of swine adipose tissue in a liquid medium containing radioactive glucose and the test chemical for a period of time, then isolating the lipid from the treated tissue and determining the incorporation of the radioactive carbon into lipid by means of scintillation counting techniques. These tests were conducted in swine adipose tissues because in swine, the primary site of lipogenesis--i.e., fatty acid synthesis--appears to be adipose tissue.
Described in more detail, the tests were conducted according to the following general procedure:
150 milligrams of slices of swine adipose tissue were incubated at 37° C. for 2 hours with shaking in 3 milliliters of Krebs-Ringer bicarbonate solution containing one-half the normal calcium ion concentration, 60 micromoles of glucose, 0.5 micro-Curie of glucose-U^14 C, and 300 microunits of insulin, and 5% dimethylsulfoxide (DMSO). The test compounds were added as a solution or suspension in DMSO and were present at a concentration of 100 micrograms per milliliter of the incubation mixture.
The incubation was terminated by addition of 0.25 milliliter of 1 N sulfuric acid. The resulting mixture was extracted with a total of 25 milliliters of chloroform/methanol (2:1 v/v). The extracts were washed according to Folch et al. (J. Biol. Chem. 226, 497-509, (1957)), air dried, and counted in a liquid scintillation counter with 15 milliliters of counting fluid (two parts toluene containing 0.4% w/v New England Nuclear Omnifluor/1part Triton X-100). The tests were conducted in triplicate and were accompanied by control tests in which all ingredients,proportions and conditions were the same except that no test compound was included. From the data obtained were calculated the precent inhibition of lipid synthesis by the test compounds in each case. The data obtained from the tests are set out in Table 1,as the percent inhibition of lipogenesis compared to the results obtained in the control tests wherein only the test compound was omitted.

| SMILES | inhibition at 100 µg/mL [%] |
| --- | --- |
| CCCCCCOc1ccc2c(c1)CC(C(=O)O)O2 (stereo not drawn) [Compound 21] | 49 |
| O=C(O)C1Cc2ccc(Oc3ccccc3)cc2O1 (stereo not drawn) [Compound 22] | 62 |
| O=C(c1ccccc1)c1ccc2oc(C(=O)O)cc2c1 [Compound 6] | 44 |
| CCC(C)c1ccc2c(c1)CC(C(=O)O)O2 (stereo not drawn) [Compound 18] | 35 |
| CCC(C)c1ccc2oc(C(=O)O)cc2c1 (stereo not drawn) [Compound 3] | 64 |
| O=C(O)c1cc2c(Oc3ccccc3)cccc2o1 [Compound 9, 4-phenoxy-2-benzofurancarboxylic acid] | 83 |
| CCCCCCOc1ccc2oc(C(=O)O)cc2c1 [Compound 7] | 78 |
| COc1ccc2cc(C(=O)O)oc2c1OC [Compound 14] | 24 |
| O=C(O)C1Cc2cc(-c3ccccc3)ccc2O1 (stereo not drawn) [Compound 2, 2,3-dihydro-5-phenyl-2-benzofurancarboxylic acid] | 50 |
| O=C(O)C1Cc2cc(Cc3ccccc3)ccc2O1 (stereo not drawn) [Compound 20] | 40 |
| CC(=O)c1ccc(-c2ccc3oc(C(=O)O)cc3c2)cc1 [Compound 10, 5-(4-acetylphenyl)-2-benzofurancarboxylic acid] | 41 |
| O=C(O)c1cc2cc(C3CCCCC3)ccc2o1 [Compound 4] | 91 |
| O=C(O)c1cc2cc(-c3ccc(O)cc3)ccc2o1 [Compound 16, 5-(4-hydroxyphenyl)-2-benzofurancarboxylic acid] | 30 |
| O=C(O)C1Cc2c(Oc3ccccc3)cccc2O1 (stereo not drawn) [Compound 23] | 27 |
| O=C(O)c1cc2ccc(Oc3ccccc3)cc2o1 [Compound 5] | 86 |
| O=C(O)c1cc2cc(-c3ccc(Cl)cc3)ccc2o1 [Compound 12, 5-(4-chlorophenyl)-2-benzofurancarboxylic acid] | 55 |
| COc1cccc2cc(C(=O)O)oc12 [Compound 13] | 22 |
| O=C(O)C1Cc2cc(-c3ccc(Cl)cc3)ccc2O1 (stereo not drawn) [Compound 24] | 56 |
| O=C(O)c1cc2cccc(Cl)c2o1 [Compound 15] | 59 |
| O=C(O)c1cc2cc(-c3ccccc3)ccc2o1 [Compound 1, 5-phenyl-2-benzofurancarboxylic acid] | 49 |
| COc1ccc(-c2ccc3oc(C(=O)O)cc3c2)cc1 [Compound 17, 5-(4-methoxyphenyl)-2-benzofurancarboxylic acid] | 56 |
| O=C(O)C1Cc2cc(C3CCCCC3)ccc2O1 (stereo not drawn) [Compound 19] | 72 |
| CC(=O)Oc1ccc(-c2ccc3oc(C(=O)O)cc3c2)cc1 [Compound 11, 5-(4-(acetyloxy)phenyl)-2-benzofurancarboxylic acid] | 80 |
| O=C(O)c1cc2cc(Cc3ccccc3)ccc2o1 [Compound 8] | 87 |
